Measured values published in patent US6537977B1, “Anti-inflammatory agent” (Seikagaku Corporation, priority 1995, dated 2003).

What was measured:
[1] = test system: MRL (1 pr/1 pr) mice; details: single administration of 20 mg/kg endoxan i.p. once a week, 8 weeks
Description: (§1) Ten weeks old male MRL (1 pr/1 pr) mice was used as experimental animals and DS prepared according to reference example 1 was used as an agent by dissolving it in sterile physiological saline solution on use.
(§2) Sterile physiological saline solution was administered in negative control group (non-treated group).
At the age of 10 weeks old, body weight of animals were weighed and blood samples were taken for determination of serum BUN (urea nitrogen) and serum creatinine. […] DS was daily, 5 times per week (neither on Saturday or on Sunday), administered into tail vein in mice using 1 ml disposable syringe at the dose level of 25 mg/kg/day. […] During administration, animals were daily observed carefully. After 8 weeks, blood samples were taken under anesthesia with Nembutal and animals were killed by exsanguination. Then, serum creatinine level, spleen weight and the weight of mesenteric lymph node were measured.

[2] = test system: MRL (1 pr/1 pr) mice; details: single administration of 10 mg/kg endoxan
Description: as §1, §2
DS was daily, 5 times per week (neither on Saturday or on Sunday), administered into tail vein in mice using 1 ml disposable syringe at the dose level of 25 mg/kg/day. […] During administration, animals were daily observed carefully. After 8 weeks, blood samples were taken under anesthesia with Nembutal and animals were killed by exsanguination. Then, serum creatinine level, spleen weight and the weight of mesenteric lymph node were measured.
Treatment for enlarged spleen in MRL mice was tried. […] The dose of DS was 25 mg/kg in any case.

[3] = set-up: species or system SD male rats; details: rat, in vivo
Description: X represents overlapping ◯ and ●.
Dermatan sulfate derived from crest and dermatan sulfate derived from bovine intestine (see reference example 2 in WO95/09188) were administered into tail vein of SD male rats and changes with the passage of time in the residual level of dermatan sulfate in blood were determined and the residual rate thereof to the initial level of dermatan sulfate on administration was calculated (see example 1 in the above International publication). […] Thus, since dermatan sulfate derived from crest or dermatan sulfate with the equivalent physical properties has a long life span in blood and sustained anti-inflammatory effects, a large dosage thereof is not required for the treatment and dermatan sulfate derived from crest or equivalent thereof is the most preferable.

[4] = test system: MRL (1 pr/1 pr) mice with nephritis; experiment: Mice SLE model-1: effects on renal function (serum BUN, creatinine); assay type: in vivo; details: once per day, five times per week, 4 weeks
Description: As agents, DS or low molecular weight heparin ([…], Fragmin) prepared according to a method in reference example 1 was dissolved in sterile physiological saline solution on use. Blood samples were taken from 17 weeks old mice, only MRL mice with nephritis whose level of blood urea nitrogen (BUN) were high at the nearly same level were selected and divided into 4 groups, each group consisting of 5 mice. Sterile physiological saline solution was administered in one group as non-treated control group, 5 mg/kg of DS, 25 mg/kg of DS and 1 mg/kg of […] were administered into tail vein in another 3 groups, once per day and five times per week. […] Serum and plasma taken were used for determination of BUN, creatinine and fibrinogen and kidneys were used for histopathological examination. […] In FIG. 3b, * means that there is a significant difference with p<0.05 from non-treated control group by Bonferroni examination. Both of BUN and creatinine level of non-treated control group were higher than those of normal control group(C57BL/6), which made it clear that renal function thereof was impaired.

[5] = test system: MRL (1 pr/1 pr) mice with nephritis; experiment: Mice SLE model-1: histopathological observations of kidney (MC and DP glomeruli); assay type: in vivo; details: 4 weeks
Description: As SLE model, 17 weeks old male MRL (1 pr/1 pr) mice were used, while C57BL/6 mice with the same age and sex were used as normal control. As agents, DS or low molecular weight heparin (LMWHep, Fragmin) prepared according to a method in reference example 1 was dissolved in sterile physiological saline solution on use.
Blood samples were taken from 17 weeks old mice, only MRL mice with nephritis whose level of blood urea nitrogen (BUN) were high at the nearly same level were selected and divided into 4 groups, each group consisting of 5 mice. Sterile physiological saline solution was administered in one group as non-treated control group, 5 mg/kg of DS, 25 mg/kg of DS and 1 mg/kg of LMWHep were administered into tail vein in another 3 groups, once per day and five times per week. […] Serum and plasma taken were used for determination of BUN, creatinine and fibrinogen and kidneys were used for histopathological examination.

[6] = test system: MRL (1 pr/1 pr) mice with nephritis; experiment: Mice SLE model-1: histopathological change of renal artery (angiitis); assay type: in vivo; details: for angiitis intermediate degree, number of individual / angiitis serious degree, number of individual / angiitis slight degree, number of individual: 5 mice
[7] = test system: MRL (1 pr/1 pr) mice with nephritis; experiment: Mice SLE model-1: fibrinogen level in blood; assay type: in vivo
[8] = test system: Cri; CD-1 mice; experiment: Toxicity test by single intravenous administration; assay type: in vivo
Description: Toxicity test by single intravenous administration of dermatan sulfate(1) Experimental method
As experimental animals, five weeks old female and male Cri; CD-1 mice (Japanese Charles-river (n=5 each) were used. The DS solution obtained by the same method as in reference example 1 was made isotonic using sterile distilled water and sterile physiological saline solution and single 2000 mg/kg of DS was administered intravenously into tail vein in mice and clinical observations were carried out for 14 days.

[9] = test system: Lewis rats with experimental allergic encephalomyelitis; experiment: Rat experimental allergic encephalomyelitis (EAE), multiple sclerosis model; assay type: in vivo; details: 5 mg DS i.p. once a day since third day after immunization

For `O=P1(N(CCCl)CCCl)NCCCO1` (stereo not drawn) [endoxan, Cyclophosphamide], the “serum creatinine level, compared with negative control group” value [1] was “did not exhibit any effect” and the “spleen weight, compared with negative control group” value [2] was “did not give any effect”.

In the case of dermatan sulfate [reference compound], the “residual rate of dermatan sulfate in blood” value [3] is reported as “scarcely detected”.

In the case of “low molecular weight heparin [LMWHep, reference compound]”, the BUN level ([4]; 1 mg/kg tail vein) is reported as “slightly improved”, the creatinine level ([4]; 1 mg/kg tail vein) is reported as “slightly improved” and the “ratio of DP glomeruli (number of DP glomeruli/total number of glomeruli)” value ([5]; 1 mg/kg) is reported as “such an effect was not recognized”. The “ratio of MC glomeruli (number of MC glomeruli/total number of glomeruli)” value ([5]; 1 mg/kg) was “slightly increased”, the “histopathological evaluation of angiitis of renal artery, versus non-treated group” value ([6]; 1 mg/kg group) was “not a big difference” and the “angiitis intermediate degree, number of individual” value (shortened to “angiitis intermediate degree”) ([6]; 1 mg/kg group) was 1. For the same compound, the “angiitis serious degree, number of individual” value (from here on “angiitis serious degree, number”) ([6]; 1 mg/kg group) was 4, the “angiitis slight degree, number of individual” value (“angiitis slight degree, number” below) ([6]; 1 mg/kg group) was 0 and the “suppression of increase of fibrinogen level in blood” value ([7]; 1 mg/kg group) was “did not scarcely recognized”.

With sodium salt of dermatan sulfate [DS] the “death after 14 days observation” value ([8]; single 2000 mg/kg i.v. tail vein, 5 female and 5 male mice) was “no death”, the lethal dose ([8]; single i.v. tail vein, mice, 14 days observation) was “more than 2000 mg/kg” and the BUN level ([4]; 5 mg/kg tail vein) was “slightly improved”. The creatinine level ([4]; 5 mg/kg tail vein) was “slightly improved”, the BUN level ([4]; 25 mg/kg tail vein) was “slightly improved” and the creatinine level ([4]; 25 mg/kg tail vein, p<0.05 vs non-treated control) was “significantly improve”. For the same compound, the “ratio of DP glomeruli (number of DP glomeruli/total number of glomeruli)” value ([5]; 5 mg/kg) was “clearly decreased in a dose-dependent manner”, the “ratio of MC glomeruli (number of MC glomeruli/total number of glomeruli)” value ([5]; 5 mg/kg) was “slightly increased” and the “ratio of DP glomeruli (number of DP glomeruli/total number of glomeruli)” value ([5]; 25 mg/kg) was “clearly decreased in a dose-dependent manner”. The “ratio of MC glomeruli (number of MC glomeruli/total number of glomeruli)” value ([5]; 25 mg/kg) was “significantly increased”, the mean onset day [9] was 9.5±0.5 and the accumulated clinical scores ([9]; p<0.05 vs control group) was 12.4±1.7. The “histopathological evaluation of angiitis of renal artery, versus non-treated group” value ([6]; 5 mg/kg group) was “not a big difference”, the “angiitis intermediate degree” value ([6]; 5 mg/kg group) was 2 and the “angiitis serious degree, number” value ([6]; 5 mg/kg group) was 3. For the same compound, the “angiitis slight degree, number” value ([6]; 5 mg/kg group) was 0, the “histopathological evaluation of angiitis of renal artery” value ([6]; 25 mg/kg group) was “individual with serious degree decreased and individual with intermediate and slight degree increased” and the “angiitis intermediate degree” value ([6]; 25 mg/kg group) was 3. For the same compound, the “angiitis serious degree, number” value ([6]; 25 mg/kg group) was 1, the “angiitis slight degree, number” value ([6]; 25 mg/kg group) was 1 and the “residual rate of dermatan sulfate in blood” value [3] was “about 10%”. For the same compound, the “residual rate of dermatan sulfate in blood, compared with dermatan sulfate derived from bovine intestine” value [3] was “twice as much”, the “increase of fibrinogen level in blood” value ([7]; 5 mg/kg group) was “suppressed in a dose-dependent manner” and the “increase of fibrinogen level in blood” value ([7]; 25 mg/kg group) was “suppressed in a dose-dependent manner”.
